Laboratory results: patent publication US11702411B2, “Pyridine, pyrazine, and triazine compounds as allosteric SHP2 inhibitors” (Revolution Medicines, Inc., priority 2017, dated 2023)

What follows are molecules tested against SHP2 (Homo sapiens (Human), UniProt Q06124) (assay: SHP2 allosteric inhibition assay (DiFMUP prompt fluorescence, activating peptide)). Details: 0.2 nM SHP2, 0.5 μM activating peptide, DiFMUP substrate; read-out: SHP2 Allosteric IC50.
Assay type: biochemical
Excerpt: Without wishing to be bound by theory, SHP is allosterically activated through binding of bis-tyrosyl-phosphorylated peptides to its Src Homology 2 (SH2) domains. The latter activation step leads to the release of the auto-inhibitory interface of SHP2, which in turn renders the SHP2 protein tyrosine phosphatase (PTP) active and available for substrate recognition and reaction catalysis. The catalytic activity of SHP2 was monitored using the surrogate substrate DiFMUP in a prompt fluorescence assay format.
The phosphatase reactions were performed at room temperature in 96-well black polystyrene plate, flat bottom, non-binding surface (Corning, Cat #3650) using a final reaction volume of 100 μL and the following assay buffer conditions: 50 mM HEPES, pH 7.2, 100 mM NaCl, 0.5 mM EDTA, 0.05% P-20, 1 mM DTT.
The inhibition of SHP2 by compounds of the present disclosure (concentrations varying from 0.00005-10 μM) was monitored using an assay in which 0.2 nM of SHP2 was incubated with 0.5 μM of Activating Peptide 1 (sequence: H2N-LN(pY)IDLDLV(dPEG8)LST(pY)ASINFQK-amide) or Activating Peptide 2 (sequence: H2N-LN(pY)AQLWHA(dPEG8)LTI(pY)ATIRRF-amide). After 30-60-minutes incubation at 25° C., the surrogate substrate DiFMUP (Invitrogen, Cat #D6567) was added to the reaction and activity was determined by a kinetic read using a microplate reader (Envision, Perkin-Elmer or Spectramax M5, Molecular Devices). The excitation and emission wavelengths were 340 nm and 450 nm, respectively. Initial rates were determined from a linear fit of the data, and the inhibitor dose response curves were analyzed using normalized IC50 regression curve fitting with control based normalization.

SMILES	IC50
COc1ccc(F)c(-c2cnc(N3CCC4(CC3)CO[C@@H](C)[C@H]4N)c(CO)n2)c1Cl [Compound 17, {3-[(3S,4S)-4-amino-3-methyl-2-oxa-8-azaspiro[4.5]decan-8-yl]-6-(2-chloro-6-fluoro-3-methoxyphenyl)pyrazin-2-yl}methanol]	> 500 nM
C[C@@H]1OCC2(CCN(c3ncc(-c4c(Cl)ccc(Cl)c4Cl)nc3CO)CC2)[C@@H]1N [Compound 18, {3-[(3S,4S)-4-amino-3-methyl-2-oxa-8-azaspiro[4.5]decan-8-yl]-6-(2,3,6-trichlorophenyl)pyrazin-2-yl}methanol]	50 to 500 nM
C[C@@H]1OCC2(CCN(c3ncc(-c4cccc(Cl)c4Cl)nc3CO)CC2)[C@@H]1N [Compound 21, {3-[(3S,4S)-4-amino-3-methyl-2-oxa-8-azaspiro[4.5]decan-8-yl]-6-(2,3-dichlorophenyl)pyrazin-2-yl}methanol]	≤ 50 nM
COc1nccc(Sc2cnc(N3CCC4(CC3)CO[C@@H](C)[C@H]4N)c(CO)n2)c1Cl [Compound 24, {3-[(3S,4S)-4-amino-3-methyl-2-oxa-8-azaspiro[4.5]decan-8-yl]-6-[(3-chloro-2-methoxypyridin-4-yl)sulfanyl]pyrazin-2-yl}methanol]	≤ 50 nM
N[C@@H]1CCCC12CCN(c1ncc(-c3cccc(Cl)c3Cl)nc1CO)CC2 [Compound 2, (3-[(1R)-1-amino-8-azaspiro[4.5]decan-8-yl]-6-(2,3-dichlorophenyl)pyrazin-2-yl)methanol]	50 to 500 nM
C[C@@H]1OCC2(CCN(c3ncc(Sc4ccnc(N5CC(S(C)(=O)=O)C5)c4Cl)nc3CO)CC2)[C@@H]1N [Compound 26, {3-[(3S,4S)-4-amino-3-methyl-2-oxa-8-azaspiro[4.5]decan-8-yl]-6-{[3-chloro-2-(3-methanesulfonylazetidin-1-yl)pyridin-4-yl]sulfanyl}pyrazin-2-yl}methanol]	≤ 50 nM
C[C@@H]1OCC2(CCN(c3ncc(-c4ccc5[nH]ncc5c4)nc3CO)CC2)[C@@H]1N [Compound 20, {3-[(3S,4S)-4-amino-3-methyl-2-oxa-8-azaspiro[4.5]decan-8-yl]-6-(2H-indazol-5-yl)pyrazin-2-yl}methanol]	50 to 500 nM
C[C@@H]1OCC2(CCN(c3ncc(Sc4ccnc(NC5CCOCC5)c4Cl)nc3CO)CC2)[C@@H]1N [Compound 27, {3-[(3S,4S)-4-amino-3-methyl-2-oxa-8-azaspiro[4.5]decan-8-yl]-6-({3-chloro-2-[(oxan-4-yl)amino]pyridin-4-yl}sulfanyl)pyrazin-2-yl}methanol]	≤ 50 nM
C[C@@H]1OCC2(CCN(c3ncc(-c4c(Cl)c(Cl)cc5c4OCO5)nc3CO)CC2)[C@@H]1N [Compound 6, {3-[(3S,4S)-4-amino-3-methyl-2-oxa-8-azaspiro[4.5]decan-8-yl]-6-(5,6-dichloro-2H-1,3-benzodioxol-4-yl)pyrazin-2-yl}methanol]	50 to 500 nM
C[C@@H]1OCC2(CCN(c3ncc(-c4cccc5cc[nH]c45)nc3CO)CC2)[C@@H]1N [Compound 11, {3-[(3S,4S)-4-amino-3-methyl-2-oxa-8-azaspiro[4.5]decan-8-yl]-6-(1H-indol-7-yl)pyrazin-2-yl}methanol]	≤ 50 nM
CC1(N)CCN(c2ncc(Sc3ccnc(N)c3Cl)nc2CO)CC1 [Compound 4, (6-((2-amino-3-chloropyridin-4-yl)thio)-3-(4-amino-4-methylpiperidin-1-yl)pyrazin-2-yl)methanol]	≤ 50 nM
C[C@@H]1OCC2(CCN(c3ncc(-c4ccc5nccnc5c4)nc3CO)CC2)[C@@H]1N [Compound 12, {3-[(3S,4S)-4-amino-3-methyl-2-oxa-8-azaspiro[4.5]decan-8-yl]-6-(quinoxalin-6-yl)pyrazin-2-yl}methanol]	> 500 nM
C[C@@H]1OCC2(CCN(c3ncc(-c4cc5[nH]ncc5cc4Cl)nc3CO)CC2)[C@@H]1N [Compound 14, {3-[(3S,4S)-4-amino-3-methyl-2-oxa-8-azaspiro[4.5]decan-8-yl]-6-(5-chloro-2H-indazol-6-yl)pyrazin-2-yl}methanol]	50 to 500 nM

Second part, the molecule after the results:

IC50	SMILES
50 to 500 nM	C[C@@H]1OCC2(CCN(c3ncc(-c4ccc5c(c4Cl)OCCC5)nc3CO)CC2)[C@@H]1N [Compound 16, {3-[(3S,4S)-4-amino-3-methyl-2-oxa-8-azaspiro[4.5]decan-8-yl]-6-(8-chloro-3,4-dihydro-2H-1-benzopyran-7-yl)pyrazin-2-yl}methanol]
≤ 50 nM	C[C@@H]1OCC2(CCN(c3ncc(Sc4cc(N)ncc4Cl)nc3CO)CC2)[C@@H]1N [Compound 32, {3-[(3S,4S)-4-amino-3-methyl-2-oxa-8-azaspiro[4.5]decan-8-yl]-6-[(2-amino-5-chloropyridin-4-yl)sulfanyl]pyrazin-2-yl}methanol]
≤ 50 nM	C[C@@H]1OCC2(CCN(c3ncc(Sc4cccc(C(=O)N(C)C)c4Cl)nc3CO)CC2)[C@@H]1N [Compound 28, 3-({5-[(3S,4S)-4-amino-3-methyl-2-oxa-8-azaspiro[4.5]decan-8-yl]-6-(hydroxymethyl)pyrazin-2-yl}sulfanyl)-2-chloro-N,N-dimethylbenzamide]
≤ 50 nM	COc1cccc(Sc2cnc(N3CCC4(CC3)CO[C@@H](C)[C@H]4N)c(CO)n2)c1Cl [Compound 25, {3-[(3S,4S)-4-amino-3-methyl-2-oxa-8-azaspiro[4.5]decan-8-yl]-6-[(2-chloro-3-methoxyphenyl)sulfanyl]pyrazin-2-yl}methanol]
≤ 50 nM	C[C@@H]1OCC2(CCN(c3ncc(Sc4cccc(C#N)c4Cl)nc3CO)CC2)[C@@H]1N [Compound 22, 3-({5-[(3S,4S)-4-amino-3-methyl-2-oxa-8-azaspiro[4.5]decan-8-yl]-6-(hydroxymethyl)pyrazin-2-yl}sulfanyl)-2-chlorobenzonitrile]
50 to 500 nM	C[C@@H]1OCC2(CCN(c3ncc(-c4c(O)ccc(Cl)c4Cl)nc3CO)CC2)[C@@H]1N [Compound 8, 2-{5-[(3S,4S)-4-amino-3-methyl-2-oxa-8-azaspiro[4.5]decan-8-yl]-6-(hydroxymethyl)pyrazin-2-yl}-3,4-dichlorophenol]
50 to 500 nM	C[C@@H]1OCC2(CCN(c3ncc(-c4cc(Cl)c5cn[nH]c5c4)nc3CO)CC2)[C@@H]1N [Compound 13, {3-[(3S,4S)-4-amino-3-methyl-2-oxa-8-azaspiro[4.5]decan-8-yl]-6-(4-chloro-2H-indazol-6-yl)pyrazin-2-yl}methanol]
50 to 500 nM	N[C@@H]1CCCC12CCN(c1ncc(-c3ccnc(Cl)c3Cl)nc1CO)CC2 [Compound 1, (3-[(1R)-1-amino-8-azaspiro[4.5]decan-8-yl]-6-(2,3-dichloropyridin-4-yl)pyrazin-2-yl)methanol]
≤ 50 nM	C[C@@H]1OCC2(CCN(c3ncc(Sc4ccnc(C#N)c4Cl)nc3CO)CC2)[C@@H]1N [Compound 23, 4-({5-[(3S,4S)-4-amino-3-methyl-2-oxa-8-azaspiro[4.5]decan-8-yl]-6-(hydroxymethyl)pyrazin-2-yl}sulfanyl)-3-chloropyridine-2-carbonitrile]
50 to 500 nM	C[C@@H]1OCC2(CCN(c3ncc(-c4ccc5c(c4Cl)OCC5)nc3CO)CC2)[C@@H]1N [Compound 10, {3-[(3S,4S)-4-amino-3-methyl-2-oxa-8-azaspiro[4.5]decan-8-yl]-6-(7-chloro-2,3-dihydro-1-benzofuran-6-yl)pyrazin-2-yl}methanol]
50 to 500 nM	N[C@@H]1CCCC12CCN(c1ncc(-c3cccc(Cl)c3Cl)nc1C(F)F)CC2 [Compound 34, (1R)-8-[5-(2,3-dichlorophenyl)-3-(difluoromethyl)pyrazin-2-yl]-8-azaspiro[4.5]decan-1-amine]
50 to 500 nM	CC1(N)CCN(c2ncc(-c3cccc(Cl)c3Cl)nc2CO)CC1 [Compound 3, [3-(4-amino-4-methylpiperidin-1-yl)-6-(2,3-dichlorophenyl)pyrazin-2-yl]methanol]
50 to 500 nM	C[C@@H]1OCC2(CCN(c3ncc(-c4ccc5nccnc5c4Cl)nc3CO)CC2)[C@@H]1N [Compound 9, {3-[(3S,4S)-4-amino-3-methyl-2-oxa-8-azaspiro[4.5]decan-8-yl]-6-(5-chloroquinoxalin-6-yl)pyrazin-2-yl}methanol]
50 to 500 nM	C[C@@H]1OCC2(CCN(c3ncc(-c4cccc(Cl)c4Cl)nc3C(F)F)CC2)[C@@H]1N [Compound 35, (3S,4S)-8-[5-(2,3-dichlorophenyl)-3-(difluoromethyl)pyrazin-2-yl]-3-methyl-2-oxa-8-azaspiro[4.5]decan-4-amine]
≤ 50 nM	C[C@@H]1OCC2(CCN(c3ncc(Sc4cccc(Cl)c4Cl)nc3CO)CC2)[C@@H]1N [Compound 30, {3-[(3S,4S)-4-amino-3-methyl-2-oxa-8-azaspiro[4.5]decan-8-yl]-6-[(2,3-dichlorophenyl)sulfanyl]pyrazin-2-yl}methanol]
≤ 50 nM	C[C@@H]1OCC2(CCN(c3ncc(-c4cc5ccccc5n4C)nc3CO)CC2)[C@@H]1N [Compound 15, {3-[(3S,4S)-4-amino-3-methyl-2-oxa-8-azaspiro[4.5]decan-8-yl]-6-(1-methyl-1H-indol-2-yl)pyrazin-2-yl}methanol]

Same assay, conditions: 0.2 nM SHP2, 0.5 μM activating peptide, DiFMUP substrate; read-out: SHP2 IC50

IC50	SMILES
145 nM	N[C@@H]1CCCC12CCN(c1ncc(-c3ccnc(Cl)c3Cl)nc1CO)CC2 [Compound 1, (3-[(1R)-1-amino-8-azaspiro[4.5]decan-8-yl]-6-(2,3-dichloropyridin-4-yl)pyrazin-2-yl)methanol]
461 nM	CC1(N)CCN(c2ncc(-c3cccc(Cl)c3Cl)nc2CO)CC1 [Compound 3, [3-(4-amino-4-methylpiperidin-1-yl)-6-(2,3-dichlorophenyl)pyrazin-2-yl]methanol]
88 nM	N[C@@H]1CCCC12CCN(c1ncc(-c3cccc(Cl)c3Cl)nc1CO)CC2 [Compound 2, (3-[(1R)-1-amino-8-azaspiro[4.5]decan-8-yl]-6-(2,3-dichlorophenyl)pyrazin-2-yl)methanol]
